Assay results as given in patent publication US20230212122A1, “MITOCHONDRIAL TARGETING COMPOUNDS FOR THE TREATMENT OF ASSOCIATED DISEASES” (The Regents of the University of Michigan, priority 2020, published 2023).

Legend:
BxPc3 cells = assay: MTT assay, cancer cell growth inhibition (BxPC-3); assay type: cell-based; settings: Homo sapiens, BXPC-3, 168 h, 7 days of treatment
Procedure: (§1) Measurement of cancer cell growth inhibition of the compounds of invention Cytotoxicity of the compounds was assessed by MTT assay. In brief, MIA PaCa-2 cells or BxPc3 cells were seeded in 96-well microtitre plates at density of 200 cells/well. After overnight attachment, cells were treated with compounds at indicated concentration. After 7 days of treatment, MTT solution (3 mg/ml, 20 μl) was added to each well and cells were incubated for 3 h at 37° C. After incubation, media from each well was removed and the dark blue formazan crystals formed by live cells were dissolved in DMSO ([…] per well). The absorbance intensity was measured at 570 nm on a microplate reader (Molecular Devices, Sunnyvale, Calif., USA). The half maximal inhibitory concentration (IC50) value were calculated using 4 or 6 dots curve plotted with Cumulative Gaussian equation or Log(inhibitor) vs. response equation in GraphPad Prism.

MIA PaCa-2 cells = assay: MTT assay, cancer cell growth inhibition (MIA PaCa-2); assay type: cell-based; settings: Homo sapiens, MIA PaCa-2, 168 h, 7 days of treatment, read-out: MiaPaCa IC50
Procedure: as §1

Row | Compound | IC50 (BxPc3 cells) [nM] | IC50 (MIA PaCa-2 cells) [nM]
1 | CCOC(=O)[C@@H]1C[C@H](O)CN(S(=O)(=O)c2ccc(S(=O)(=O)N(CC)CC)cc2)C1 (relative stereo) [DX3-14B-P1, (cis)-ethyl 1-((4-(N,N-diethylsulfamoyl)phenyl)sulfonyl)-5-hydroxypiperidine-3-carboxylate] | 3290 ± 60 | 1350 ± 590
2 | CCN(CC)S(=O)(=O)c1ccc(S(=O)(=O)N2CCC[C@@H](C(=O)N[C@@H]3CCOC3)C2)cc1 [DX3-107B, (R)-1-((4-(N,N-diethylsulfamoyl)phenyl)sulfonyl)-N-((R)-tetrahydrofuran-3-yl)piperidine-3-carboxamide] | 2270 ± 610 | 750 ± 80
3 | CCN(CC)S(=O)(=O)c1ccc(S(=O)(=O)N2CCC[C@@H](C(=O)NC3COC3)C2)cc1 [DX2-242, (R)-1-((4-(N,N-diethylsulfamoyl)phenyl)sulfonyl)-N-(oxetan-3-yl)piperidine-3-carboxamide] | 13800 ± 3580 | 2340 ± 1010
4 | CCOC(=O)[C@@H]1CCCN(S(=N)(=O)c2ccc(S(=O)(=O)N(CC)CC)cc2)C1 (stereo partly drawn) [DX2-225, ethyl (3R)-1-(4-(N,N-diethylsulfamoyl)phenylsulfonimidoyl)piperidine-3-carboxylate] | 13400 ± 4580 | 12100 ± 3850
5 | CCOC(=O)[C@@H]1CCCN(S(=O)(=O)c2ccc(S(=O)(=O)N3CCCCC3)cc2)C1 [DX2-265, ethyl (R)-1-((4-(piperidin-1-ylsulfonyl)phenyl)sulfonyl)piperidine-3-carboxylate] | 3290 ± 740 | 2870 ± 490
6 | CCOC(=O)[C@@H]1CCCN(S(=O)(=O)c2ccc(C(=O)N(CC)CC)cc2)C1 [DX3-78B, ethyl (R)-1-((4-(diethylcarbamoyl)phenyl)sulfonyl)piperidine-3-carboxylate] | 620 | 280
7 | CCOC(=O)C1(F)CCCN(S(=O)(=O)c2ccc(S(=O)(=O)N(CC)CC)cc2)C1 (stereo not drawn) [DX3-47, ethyl 1-((4-(N,N-diethylsulfamoyl)phenyl)sulfonyl)-3-fluoropiperidine-3-carboxylate] | 4920 ± 1940 | 2940 ± 320
8 | CCN(CC)S(=O)(=O)c1ccc(S(=O)(=O)N2CCC[C@@H](C(=O)OC3CC3)C2)cc1 [DX2-263, cyclopropyl (R)-1-((4-(N,N-diethylsulfamoyl)phenyl)sulfonyl)piperidine-3-carboxylate] | 350 ± 60 | 300 ± 130
9 | CCN(CC)S(=O)(=O)c1ccc(S(=O)(=O)N2CCC[C@@H](C(=O)N[C@H]3CCN(C(=O)OC(C)(C)C)C3)C2)cc1 [DX3-119, tert-butyl (S)-3-((R)-1-((4-(N,N-diethylsulfamoyl)phenyl)sulfonyl)piperidine-3-carboxamido)pyrrolidine-1-carboxylate] | 330 ± 120 | 130 ± 40
10 | CCN(CC)S(=O)(=O)c1ccc(S(=O)(=O)N2CCC[C@@H](C(=O)N3CC4(CN(C(=O)OC(C)(C)C)C4)C3)C2)cc1 [DX3-120, tert-butyl (R)-6-(1-((4-(N,N-diethylsulfamoyl)phenyl)sulfonyl)piperidine-3-carbonyl)-2,6-diazaspiro[3.3]heptane-2-carboxylate] | 1100 ± 160 | 430 ± 180
11 | CCOC(=O)C12CC(CN(S(=O)(=O)c3ccc(S(=O)(=O)N(CC)CC)cc3)C1)C2 [DX3-115, ethyl 3-((4-(N,N-diethylsulfamoyl)phenyl)sulfonyl)-3-azabicyclo[3.1.1]heptane-1-carboxylate] | 1230 ± 790 | 1040 ± 450
12 | CCOC(=O)[C@@H]1CCCN(S(=O)(=O)c2ccc(S(=O)(=O)N(CC)CC)c(F)c2)C1 [DX2-275, ethyl (R)-1-((4-(N,N-diethylsulfamoyl)-3-fluorophenyl)sulfonyl)piperidine-3-carboxylate] | 1610 ± 370 | 930 ± 360
13 | CCN(CC)S(=O)(=O)c1ccc(S(=O)(=O)N2CCCC(S(=O)(=O)N(C)C)C2)cc1 (stereo not drawn) [DX3-39, 1-((4-(N,N-diethylsulfamoyl)phenyl)sulfonyl)-N,N-dimethylpiperidine-3-sulfonamide] | 6300 ± 1440 | 5100 ± 1290
14 | CCOC(=O)C1CN(S(=O)(=O)c2ccc(S(=O)(=O)N(CC)CC)cc2)CCN1 (stereo not drawn) [DX3-44B, ethyl 4-((4-(N,N-diethylsulfamoyl)phenyl)sulfonyl)piperazine-2-carboxylate] | 6770 ± 520 | 4700 ± 1920
15 | CCOC(=O)[C@@H]1CCCN(S(=O)(=O)c2ccc(Oc3ccc(S(=O)(=O)N(CC)CC)cc3)cc2)C1 [DX2-230, ethyl (R)-1-((4-(4-(N,N-diethylsulfamoyl)phenoxy)phenyl)sulfonyl)piperidine-3-carboxylate] | 3880 ± 570 | 3920 ± 890
16 | CCOC(=O)[C@H]1CCCN(S(=O)(=O)c2ccc(S(=O)(=O)N(CC)CC)cc2)C1 [DX2-202, ethyl (S)-1-((4-(N,N-diethylsulfamoyl)phenyl)sulfonyl)piperidine-3-carboxylate] | 6800 ± 2100 | 6080 ± 760
17 | CCOC(=O)[C@@H]1CCCN(S(=O)(=O)c2ccc(S(=O)(=O)N(CC)CC)cn2)C1 [DX2-293, ethyl (R)-1-((5-(N,N-diethylsulfamoyl)pyridin-2-yl)sulfonyl)piperidine-3-carboxylate] | 1370 ± 520 | 1300 ± 450
18 | CCN(CC)S(=O)(=O)c1ccc(S(=O)(=O)N2CCC[C@@H](C(=O)N[C@@H]3CCN(C(=O)c4ccccc4)C3)C2)cc1 [DX3-125, (R)-N-((R)-1-benzoylpyrrolidin-3-yl)-1-((4-(N,N-diethylsulfamoyl)phenyl)sulfonyl)piperidine-3-carboxamide] | 3720 | 940
19 | CCN(CC)S(=O)(=O)c1ccc(S(=O)(=O)N2CCCC(F)C2)cc1 (stereo not drawn) [DX3-49B, N,N-diethyl-4-((3-fluoropiperidin-1-yl)sulfonyl)benzenesulfonamide] | 8270 ± 2520 | 3650 ± 1680
20 | CCOC(=O)[C@@H]1CCCN(S(=O)(=O)c2ccc(S(=N)(=O)N(CC)CC)cc2)C1 (stereo partly drawn) [DX3-90, ethyl (3R)-1-((4-(N,N-diethylsulfamidimidoyl)phenyl)sulfonyl)piperidine-3-carboxylate] | 3590 ± 1390 | 2550 ± 150
21 | CCN(CC)S(=O)(=O)c1ccc(S(=O)(=O)N2CCC[C@@H](c3nc(C)no3)C2)cc1 [DX3-122B, (R)-N,N-diethyl-4-((3-(3-methyl-1,2,4-oxadiazol-5-yl)piperidin-1-yl)sulfonyl)benzenesulfonamide] | 2860 ± 3140 | 4120 ± 1160
22 | CCOC(=O)c1cccc(S(=O)(=O)c2ccc(S(=O)(=O)N(CC)CC)cc2)c1 [DX3-3, ethyl 3-((4-(N,N-diethylsulfamoyl)phenyl)sulfonyl)benzoate] | 2290 ± 700 | 4120 ± 2440
23 | CCN(CC)S(=O)(=O)c1ccc(S(=O)(=O)N2CCC[C@@H](C(=O)N3CCOCC3)C2)cc1 [DX3-121B, (R)-N,N-diethyl-4-((3-(morpholine-4-carbonyl)piperidin-1-yl)sulfonyl)benzenesulfonamide] |  | 350 ± 20
